Data set [1] is described as follows: Molar enthalpy of transition or fusion. Particulars: Crystal; DSC.
The conditions of data set [2]: Crystal; DTA.

± gives the expanded uncertainty stated by the source.

Turning to `CC(C)C1=CC2=CC[C@@H]3[C@](C)(CCC[C@@]3(C)C(=O)O)[C@H]2CC1` [abietic acid], the “Molar enthalpy of transition or fusion” value in data set [1] was 4.65 ± 0.136 kcal/mol. In data set [2], the Normal melting temperature worked out at 177.74 ± 0.41 °C.

Values taken from the NIST ThermoML archive (doi:10.1016/j.fluid.2014.01.018).
